Where a name gives a salt, the structure may show the parent alone.
What was measured:
serotonin uptake = assay: Biogenic amine uptake inhibition, rat brain synaptosomes, tritiated serotonin; type: biochemical, Sprague-Dawley derived rats; details: tritiated amine 0.1 μM, 37° C., 4 minutes
Text: (§1) Sprague-Dawley derived rats of either sex, weighing about 180-250 g, were killed by decapitation. The brains were immediately removed, placed on a glass plate chilled over crushed ice and dissected according to a modification of the method of Glowinski and Iversen (J. Neurochem. 13, 655-669, 1966). First, the rhombencephalon was separated by transverse section and discarded. The remaining tissue was bisected by a midline sagittal cut. The hypothalamus was removed using the anterior and posterior reference points, respectively. The hippocampus was peeled away and discarded and the striata were exposed and removed. Frontal cortical tissue was dissected from remaining brain structures. The hypothalamus and striatum each weighed about 100 mg , the striata 50-75 mg, and the cortex weighed up to 800 mg. The tissues were placed in a cold Potter-Elvehjem glass homogenizer with 5 (cortex) or 10 (hypothalamus) and 20 (striatum) volumes of ice-cold 0.32M sucrose, pH 7.0 and homogenized by hand. The homogenate was centrifuged at 2500 rpm in a GLC centrifuge for 10 minutes in a refrigerated room. The supernatant fraction containing the synaptosomes was decanted, mixed thoroughly, and kept on crushed ice for use in the uptake studies.
(§2) Uptake studies were conducted according to the method of Synder and Coyle (J. PharmacoI. Exp. Ther. 165, 78-86, 1969) with minor modifications. Usually a 0.1 ml aliquot of the synaptosomal preparation was incubated in a mixture of 0.75 ml of modified Krebs-Ringer buffer, 0.05 ml of the drug being evaluated for uptake inhibition, and 0.1 ml of a 1 μM tritiated amine (norepinephrine, serotonin or dopamine) solution (final concentration 0.1 μM) for a total volume of 1 ml. The modified Krebs-Ringer bicarbonate buffer used in these studies contained 118 mM NaCl, 4 mM KCl, 1.3 mM CaCl2, 1.12 mM KH2 PO4, 1.2 mM MgSO4 and 24 mM NaHCO3, with the addition of 5 mM glucose, 0.15 mM disodium EDTA, 12.5 μM pargyline and 1 mM ascorbic acid. Uptake was initiated by the addition of the tritiated amine, and the mixture was incubated at 37° C. in a Dubnoff Metabolic Shaking Incubator for 4 minutes. Control incubations without the test drug were conducted at 37° C. to determine total uptake and non-specific binding at 0° C. to correct for the diffusion of the tritiated amine into the synaptosomes and/or binding. Filtration was used to terminate uptake and collect the synaptosomes. In the filtration technique the incubation mixture was diluted with 4 ml of ice-cold 0.9% NaCl and filtered through GF/B glass microfiber filters (Whatman) under gentle vacuum. The filters were subsequently washed four times with 5 ml of ice-cold 0.9% NaCl and transferred to glass scintillation vials. Soluene® ([…]) and IONIC FLUOR (Packard) scintillation fluid (3.5 ml) were added and the vials were placed in a mechanical shaker for 1 hour. All samples were cold and dark adapted and counted in a TriCarb® (Packarad) Model 460 Liquid Scintillation Spectrometer. Corrections were automatically made for quenching by the external standard method and for luminescence. All results (see Table 2) are based on total radioactivity.

dopamine uptake = assay: Biogenic amine uptake inhibition, rat brain synaptosomes, tritiated dopamine; type: biochemical, Sprague-Dawley derived rats; details: tritiated amine 0.1 μM, 37° C., 4 minutes
Text: as §1, §2

norepinephrine uptake = assay: Biogenic amine uptake inhibition, rat brain synaptosomes, tritiated norepinephrine; type: biochemical, Sprague-Dawley derived rats; details: tritiated amine 0.1 μM, 37° C., 4 minutes, read-out: Biogenic Amine Uptake Inhibition IC50 Norephinephrine
Text: as §1, §2

alpha-2-receptor = assay: Radioligand binding, alpha-2 adrenoceptor, rat cerebral cortices, [^3 H]-rauwolscine; details: for Ki: rat cerebral cortices, [^3 H]-rauwolscine; for alpha-2 - Selectivity Ki alpha-1/Ki alpha 2: ratio of Ki alpha-1 to Ki alpha-2
Procedure: The compounds were assessed for alpha-adrenergic receptor subtype selectivity by use of radioligand binding techniques as described previously (DeBernardis et.al. J. Med. Chem. 28, 1398 (1985)).

intraocular pressure = assay: Effect of topically administered compounds on intraocular pressure of rabbits; type: in vivo, New Zealand rabbits; details: 0.3% soln., 0.1 ml topical
Procedure: The intraocular pressure lowering effects of the compounds were evaluated in unanesthetized male albino, New Zealand rabbits weighing 2.0 to 2.5 kg. The rabbits were placed in Plas Labs restraining devices for the duration of the experiment. Intraocular pressure (IOP) was measured with a Bausch and Lomb Applamatic Tonometer and recorded as the average of three individual readings at each time point in the experiment. Baseline IOP values were established at three time points separated by 30 minutes. Each compound or vehicle was applied topically to the cornea in a volume of 0.1 ml to one eye in each six rabbits. The contralateral eye was untreated. IOP was recorded at 5, 15, 30, 60 and 90 minutes after dosing.

Molecule | IC50 (serotonin uptake) | IC50 (dopamine uptake) | IC50 (norepinephrine uptake) | Ki (alpha-2-receptor) | alpha-2 - Selectivity Ki alpha-1/Ki alpha 2 (alpha-2-receptor) | % Change in Intraocular Pressure After Treatment Compared to Untreated Eye (intraocular pressure; 5 minutes) | % Change in Intraocular Pressure After Treatment Compared to Untreated Eye (intraocular pressure; 15 minutes) | % Change in Intraocular Pressure After Treatment Compared to Untreated Eye (intraocular pressure; 30 minutes) | % Change in Intraocular Pressure After Treatment Compared to Untreated Eye (intraocular pressure; 60 minutes) | % Change in Intraocular Pressure After Treatment Compared to Untreated Eye (intraocular pressure; 90 minutes)
CCN(CCc1cccs1)CC1CCCc2cc(OC)ccc21 (centres unmarked) [Example 41, 1-((N-Ethylamino)methyl-N-(2-(2-thienyl)ethyl))-6-methoxy tetralin hydrochloride] | 2.28 µM | 6.03 µM | 0.2 µM | 0.0029 µM | 326 | – | – | – | – | –
CCN(CCc1cccc(F)c1)CC1CCCc2c1ccc1c2OCO1 (centres unmarked) [Example 165, 1-((N-Ethylamino)methyl-N-(2 m-fluorophenethyl))-5,6-methylenedioxy tetralin hydrochloride] | 1.24 µM | 6.67 µM | 0.398 µM | 0.0035 µM | 132 | – | – | – | – | –
c1ccc(C2CCN(CC3CCCc4c3ccc3c4OCO3)C2)cc1 (centres unmarked) [Example 143a, 5,6-Methylenedioxy-1-(3-phenylpyrrolidino-1-methyl) tetralin methanesulfonate] | 4.03 µM | 8.72 µM | 1.1 µM | 0.0012 µM | 43 | – | – | – | – | –
CN(CCc1cccc(F)c1)CC1CCCc2cc(O)ccc21 (centres unmarked) [Example 10, 1-((N-Methylamino)methyl-N-(2-(m-fluorophenyl)ethyl))6-hydroxy tetralin hydrochloride] | – | – | – | – | – | -45% | -31% | -25% | -36% | -23%
Fc1ccccc1C1CCN(CC2CCCc3c2ccc2c3OCO2)C1 (centres unmarked) [Example 176a, 5,6-Methylenedioxy-1-(3-(o-fluorophenyl)pyrrolidino-1-methyl) tetralin methanesulfonate] | 2.83 µM | 7.31 µM | 1.56 µM | 0.0006 µM | 132 | – | – | – | – | –
8-Fluoro-5,6-methylenedioxy-1-(3-phenylpyrrolidino1-methyl) tetralin hydrochloride [Example 160] | 1.84 µM | 2.93 µM | 0.991 µM | – | – | – | – | – | – | –
CCN(CCc1ccsc1)CC1CCCc2cc(OC)ccc21 (centres unmarked) [Example 44, 1-N-Ethylamino)methyl-N-(2-(3-thienyl)ethyl))-6-methoxy tetralin hydrochloride] | 3.29 µM | 8.64 µM | 0.357 µM | 0.0056 µM | 105 | – | – | – | – | –
COc1cccc2c1CCCC2CN(C)CCc1cccc(F)c1 (centres unmarked) [Example 20c, 1-((N-methylamino)methyl-N-(2-(m-fluorophenyl)ethyl))-5-methoxytetralinmethanesulfonate] | 0.161 µM | 9.17 µM | 1.58 µM | – | – | – | – | – | – | –
CCN(CCc1cccc(F)c1)CC1CCCc2c(OC)cccc21 (centres unmarked) [Example 72, 1-((N-Ethylamino)methyl-N-(2-(m-fluorophenyl)ethyl))-5-methoxy tetralin hydrochloride] | 0.466 µM | 6.83 µM | 0.137 µM | – | – | – | – | – | – | –
CN(CCc1cccc(F)c1)CC1CCCc2c1ccc1c2OCO1 (centres unmarked) [Example 166, 1-((N-Methylamino)methyl-N-(2-m-fluorophenethyl))-5,6-methylenedioxy tetralin methanesulfonate] | 0.4 µM | 8.77 µM | 1.52 µM | 0.0045 µM | 134 | – | – | – | – | –
CN(C)CCCN1c2ccccc2CCc2ccccc21 [Imipramine, reference compound] | 0.778 µM | 125 µM | 0.346 µM | – | – | – | – | – | – | –
CN(CCc1ccccc1)CC1CCCc2cc(O)ccc21 (centres unmarked) [Example 11, 1-((N-Methylamino)methyl-N-(2-phenylethyl))-6-hydroxy tetralin hydrobromide] | 7.23 µM | 10.1 µM | 1.74 µM | – | – | – | – | – | – | –
COc1ccc2c(c1)CCCC2CN(C)CCc1cccc(F)c1 (centres unmarked) [Example 6b, 1-((N-methylamino)methyl-N-(2-(m-fluorophenyl)ethyl))-6-methoxy tetralin hydrochloride] | 1.95 µM | 10.1 µM | 0.574 µM | 0.005 µM | 236 | – | – | – | – | –
CCN(CCc1cccs1)CC1CCCc2c(OC)cccc21 (centres unmarked) [Example 73, 1-((N-Ethylamino)methyl-N-(2-(2-thienyl)ethyl))-5-methoxy tetralin hydrochloride] | 0.84 µM | 8.43 µM | 0.336 µM | – | – | – | – | – | – | –
COc1ccc2c(c1)CCCC2CN(C)CCc1cccs1 (centres unmarked) [Example 5, 1-((N-Methylamino)methyl-N-(2-(2-thienyl)ethyl))-6-methoxy tetralin methanesulfonate] | 5.92 µM | 6.53 µM | 1.04 µM | 0.0008 µM | 725 | – | – | – | – | –
CN(CCc1cccs1)CC1CCCc2c1ccc1c2OCCO1 (centres unmarked) [Example 30, 1-((N-Methylamino)methyl-N-(2-(2-thienyl)ethyl))-5,6-ethylenedioxy tetralin hydrochloride] | 1.34 µM | 8.08 µM | 0.624 µM | 0.004 µM | 118 | – | – | – | – | –
COc1cccc2c1CCCC2CN(C)CCc1cccs1 (centres unmarked) [Example 19, 1-((N-Methylamino)methyl-N-(2-(2-thienyl)ethyl))-5-methoxy tetralin methanesulfonate] | 0.411 µM | 6.09 µM | 0.498 µM | – | – | – | – | – | – | –
c1csc(C2CCN(CC3CCCc4c3ccc3c4OCO3)C2)c1 (centres unmarked) [Example 144, 5,6-Methylenedioxy-1-(3-(2-thienyl)pyrrolidino-1-methyl) tetralin methanesulfonate] | – | – | – | 0.0012 µM | 204 | – | – | – | – | –
Cc1cc(O)c(O)c2c1C(CN(C)CCc1cccc(F)c1)CCC2 (centres unmarked) [Example 34, 1-(N-Methylamino)methyl-N-(2-(m-fluorophenyl)ethyl))-5,6-dihydroxy-8-methyltetralin hydrobromide] | 2.2 µM | 9.4 µM | 0.365 µM | 0.0026 µM | 127 | – | – | – | – | –
COc1ccc2c(c1)CCC2CN1CCC(c2cccc(F)c2)C1 (centres unmarked) [Example 153, 5-Methoxy-1-(3-(m-fluorophenyl)pyrrolidino-1-methyl) indane hydrochloride] | – | – | – | 0.0086 µM | 7 | – | – | – | – | –

Reference: US5140040A, “1-aminomethyl-1,2,3,4-tetrahydronaphthalenes” (Abbott Laboratories, priority 1991, dated 1992)
